Experimental data taken from patent US11696903B2, “Compounds and methods for scavenging dicarbonyl electrophiles” (VANDERBILT UNIVERSITY, priority 2019, dated 2023).
“Also recorded” adds a separate entry of the source.

How the values were obtained:
[1] = Tolerability of EtHOBA in control mice (body weight, organs); assay type: in vivo
Experimental: FIGS. 3A and 3B show data from C57BL/6 mice were treated or not with various concentrations of EtHOBA. (A) Body weight was assessed every day. (B) After 6 days, mice were euthanized and EtHOBA was measured in the colon. n=5 mice/group.
The present inventors analyzed the effect of various concentrations of EtHOBA and its bioavailability in control mice. […] After 6 days of treatment, EtHOBA concentrations in the colon were analyzed using liquid chromatography electrospray ionization tandem mass spectrometry (LC/EST/MS/MS).

colonic immune response = experiment: Colonic immune response in AOM-DSS mice (infiltration score, gene expression, IF); assay type: in vivo, C57BL/6 mice
Description: The present inventors used the tissues generated for FIG. 5 to study immune cell responses in AOM-DSS-treated mice±EtHOBA.
Using the tissues from the same mice as in FIG. 5, the present inventors analyzed the expression of key genes encoding mediators of the innate and adaptive immune response. […] Importantly, the overall pattern was that the genes encoding antitumoral effectors were expressed at a higher level in mice that were given compounds of the present invention. […] In contrast, the gene encoding the immunosuppressive myeloid mediator AR G1 was not affected by EtHOBA (FIG. 9). Using IF, we confirmed that mice treated with AOM-DSS mice that were given EtHOBA had increased CD68^+NOS2^+ (M1 macrophages) in colon tumors (FIG. 10).

COX-2 activity = experiment: PGE2 production in A549 cell media (GC/MS) as measure of COX-2 activity; assay type: cell-based, human
Experimental: (A). Scavengers were screened in RAW264.7 cells for the ability to decrease LG adduct formation on histones. Scavengers used were glucosamine (GA), 3-methoxysalicylamine (3-MoSA), pentylpyridoxamine (PPM), and 5-ethylsalicylamine (EtSA). Cells were stimulated to express COX-2, pretreated 45 min. with 500 μM scavenger or vehicle (H2O), and given 20 μM AA for 1 h before lysing and extracting histones. Histone proteins were analyzed by LC/ESI/MS/MS for LG-lysyl lactam adduct, n=2. (B) Stimulated A549 cells were pretreated with 30, 300, or 1000 μM EtSA prior to 1 h with 20 μM AA, and histones analyzed for LG-lysyl adduct. *, p<0.05 by one-way ANOVA followed by Dunnett's multiple comparisons post-test (n=3-5). (C). A549 cells were stimulated, pretreated 45 min. with 1000 μM EtSA or H2O vehicle, and given 20 μM AA for 1 h. Media was analyzed by GC/MS for PGE2 (n=3). There was no effect on PGE2 production at lower doses of EtSA (data not shown).
To stimulate COX-2 expression, A549 or RAW264.7 cells were treated overnight with 5 ng/mL IL-1B (A549) or 10 μg/mL LPS and 10 U/mL IFNγ (RAW264.7) in serum-free medium. When indicated, cells were pretreated with indomethacin, aldehyde scavengers (glucosamine, 3-MoSA, PPM or EtSA), or vehicle (ethanol for indomethacin, H2O for scavengers) for 45 min, and then given 20 μM arachidonic acid (AA) or DMSO vehicle for 1 h before lysing. […]

[2] = tested on: INS-GAS mice infected with H. pylori; experiment: H. pylori-induced gastric dysplasia and carcinoma in INS-GAS mice; assay type: in vivo
Experimental: (§1) FIGS. 16A, 16B, 16C, 16D, 16E, and 16F show INS-GAS mice (8 per group) were infected or not with H. pylori strain PMS for 8 weeks and then treated with EtSA (7.5 mg/ml) one week after infection. (A) EtSA concentration in gastric tissues; **P<0.01, ****P<0.0001 vs. mice without EtSA. (B) Frequency of diagnoses. IMC, intramucosal carcinoma; LGD, low grade dysplasia; ND, no dysplasia. (C) Quantification of extent of dysplasia and cancer as a percentage of tissue sections. (D) H&E staining of INS-GAS mouse stomach tissues, showing carcinoma in an infected mouse; scale bar, 50 μm. In B and C, *P<0.05, **P<0.01 vs. infected mice.
(§2) As discussed further in the Examples, the human gastric epithelial cell line AGS was infected with Hp PMSS1±10 mM EtSA. FVB/N insulin-gastrin (INS-GAS) mice and Mongolian gerbils were infected for 8 wk with Hp PMSS1 and 7.13, respectively; EtSA (0.75% in water) was given to animals beginning one wk post-infection. Lys-LG adducts, a marker of electrophile reactions, and EtSA were quantified by LC/EST/MS/MS. Histology was analyzed on H&E staining. DNA damage was evaluated by pH2AX staining. Hp colonization was quantified by culture. Mucosal immune responses were determined by RNA profiling and by Luminex assay. Mice were imaged using PET/CT with ^18F-FDG (inflammation marker) and ^18F—NaF (tumor marker).
The effect of a scavenger of levuglandins and other dicarbonyls was investigated in transgenic INS-GAS mice, which have high circulating gastrin levels and develop atrophic gastritis, and dysplasia and carcinoma with H. pylori infection. Mice were infected with H. pylori, and then EtSA was administered in drinking water, starting 7 days after infection. After 8 weeks, EtSA levels were measured in the gastric tissues of uninfected and infected mice receiving this compound (FIG. 16A). […] There was no dysplasia or carcinoma in uninfected mice (FIG. 16D).

[3] = EtSA in gastric tissues (LC/ESI/MS/MS); assay type: in vivo, INS-GAS mice; settings: EtSA in drinking water
Experimental: as §1
as §2, with “marker). […]” for “marker).”

[4] = tested on: Mongolian gerbils infected with Hp 7.13; experiment: Gastric cancer development in Mongolian gerbils infected with Hp 7.13; assay type: in vivo; settings: gerbils infected with Hp 7.13, EtSA 0.75% in water
Experimental: as §2

[5] = H. pylori-infected INS-GAS mice treated with EtSA, 8 weeks, 37.5% without EtSA

For `CCc1ccc(O)c(CN)c1` [EtHOBA, 5-ethyl-2-hydroxybenzylamine], which Body weight ([1]; 3.7 mg/ml EtHOBA, control mice, 6 days) is on record?
The Body weight was “lost weight on day 1, but did not lose additional weight and did not die”.

And the Body weight ([1]; 0.37-1.5 mg/ml EtHOBA, compared to untreated mice)?
Its Body weight is “no loss of body weight”.

What about the colon weight/length ([1]; 1.5 or 3.7 mg/ml EtHOBA) of the same compound?
Its colon weight/length is “no change in colon weight/length”.

What about the “macroscopic evidence of organ damage” value ([1]; 1.5 or 3.7 mg/ml EtHOBA) of the same compound?
The value was “no macroscopic evidence of organ damage”.

What about the immune cell infiltration (colonic immune response; AOM-DSS mice, EtHOBA vs untreated) of the same compound?
The immune cell infiltration was “more influx of immune cells”.

And the “Arg1 (ARG1) expression” value (colonic immune response; AOM-DSS ± EtHOBA)?
Its value is “not affected”.

What about the “CD68+NOS2+ (M1 macrophages) in colon tumors” value (colonic immune response; IF, AOM-DSS mice) of the same compound?
The value was “increased”.

And the “histology in control mice” value (colonic immune response; control mice given EtHOBA)?
Its value is “no effect on histology”.

And the Il12a expression (colonic immune response; non-tumor and tumor tissue, AOM-DSS ± EtHOBA)?
Its Il12a expression is “reached statistical significance for an increase”.

And the Il17 expression (colonic immune response; non-tumor tissue, AOM-DSS ± EtHOBA)?
The Il17 expression was “reached statistical significance for an increase”.

What about the Il12b expression (colonic immune response; tumor tissue, AOM-DSS ± EtHOBA) of the same compound?
The Il12b expression was “reached statistical significance for an increase”.

And the Nos2 expression (colonic immune response; tumor tissue, AOM-DSS ± EtHOBA)?
The Nos2 expression was “reached statistical significance for an increase”.

And the Tnfa expression (colonic immune response; tumor tissue, AOM-DSS ± EtHOBA)?
The Tnfa expression was “reached statistical significance for an increase”.

What about the PGE2 production (COX-2 activity; A549, highest concentration tested (1000 μM EtSA)) of the same compound?
The PGE2 production was “without affecting”.

What about the PGE2 production (COX-2 activity; A549, lower doses of EtSA (data not shown)) of the same compound?
Its PGE2 production is “no effect”.

And the development of carcinoma [2, 5]?
The development of carcinoma was 0%.

What about the development of dysplasia [2, 5] of the same compound?
Its development of dysplasia is 14.3%.

What about the “extent of dysplasia and carcinoma” value ([2]; Hp-infected INS-GAS mice treated with EtSA, percentage of gastric mucosa) of the same compound?
Its value is “significantly attenuated; also recorded: decreases”.

What about the “frequency of intramucosal carcinoma” value ([2]; Hp-infected INS-GAS mice treated with EtSA, 69% without EtSA, p<0.05) of the same compound?
Its value is 28%.

And the “EtSA bioavailability in the stomach” value [3]?
Its value is “bioavailable in the stomach”.

What about the “frequency of gastric cancer development” value [4] of the same compound?
The value was “reduced”.
